89 molecules from PubChem BioAssay AID1645848 can be followed below.

≈ marks a conversion by molar mass, not a printed value.

The conditions of this data set: buffer; pH 7.4; 6.0 h; 150.0 µM.
Turning to `Fc1ccc(Nc2nc(-c3ccncc3F)nc3ccccc23)cc1F`, the kinetic solubility was under 1 µg/mL.

Molecule `COC(=O)c1ccc(NS(=O)(=O)c2c(C)nc3sccn3c2=O)cc1` registered a solubility (kinetic) of over 56 µg/mL.

The molecule `COCCNc1ncc(-c2cccc(O)c2)c2c1OCC2` had a solubility (kinetic) of over 85 µg/mL.

With `CN[C@@H]1C[C@@H](c2ccc(Cl)c(Cl)c2)c2ccccc21`, the kinetic solubility is over 43 µg/mL.

With `Cc1ccc(S(=O)(=O)Nc2cnccc2C(=O)Nc2nc(-c3ccc(Cl)c(Cl)c3)cs2)cc1`, the kinetic solubility came to 0.578 µg/mL (≈ 1.11 µM).

`Fc1ccc(Nc2nc(-c3ccnc4ccccc34)nc3ccccc23)cc1F` came in with a kinetic solubility of under 1 µg/mL.

In the case of `COc1ccc(C(=O)N2CCC3(CC2)CN(c2cccc(-c4ccccc4)c2)C3)cc1`, the kinetic solubility was under 1 µg/mL.

The molecule `Cc1ccc(S(=O)(=O)Nc2cccc(C(=O)Nc3nc(-c4ccccc4)cs3)c2Cl)cc1` yielded a solubility (kinetic) of under 1 µg/mL.

For `COc1cccc(C(=O)NCCSc2c(-c3ccc(F)cc3)[nH]c3ccccc23)c1OC`, the kinetic solubility is under 1 µg/mL.

The molecule `CC(C)(C)n1cnc2cc(C(=O)N3CCCCC3)ccc21` yielded a solubility (kinetic) of over 42 µg/mL.

`O=C(NC1CC1)c1nc(-c2cccnc2)c2cnccn12`: the kinetic solubility turned out to be 31.6 µg/mL (≈ 113 µM).

In turn, `O=C(NCC1Cn2cccc2CN1Cc1cccnc1)Nc1ccccc1` (centres undefined) showed a kinetic solubility of over 53 µg/mL.

Take `Cc1ccc(NC2=C(c3ccc(C(F)(F)F)cc3)C(=O)c3ccccc32)cc1F`: the kinetic solubility was under 1 µg/mL.

Molecule `Oc1ccc(C(=S)N2CCN(c3cccc(Cl)c3)CC2)cc1` had a kinetic solubility of under 1 µg/mL.

The molecule `O=C(Nc1ccc2c(N3CCCCC3)ncnc2c1)c1cc(F)cc(F)c1` displayed a kinetic solubility of under 1 µg/mL.

`COCC(C)NCc1cc2ccc(OC)cc2nc1N1CCN(c2ccc(F)cc2)CC1` (centres undefined) returned a kinetic solubility of 39.5 µg/mL (≈ 90.1 µM).

`N#Cc1cnc(NS(=O)(=O)c2ccc(NC(=O)Cc3ccc(F)c(Cl)c3)cc2)s1` showed a solubility (kinetic) of over 67 µg/mL.

`COc1cccc(C(=O)Nc2nc(-c3nnn(-c4ccccc4C(F)(F)F)c3C)ns2)c1` displayed a solubility (kinetic) of 1.03 µg/mL (≈ 2.24 µM).

Turning to `Clc1ccccc1-c1nccc(-n2ccnc2)n1`, the solubility (kinetic) is 7.3 µg/mL (≈ 28.4 µM).

`CSc1ccccc1N1CCN(CCCCCC(=O)NC2CCCc3ccccc32)CC1` (centres undefined) came in with a solubility (kinetic) of 44.7 µg/mL (≈ 99 µM).

Molecule `CCCCCn1c(CCCNC(=O)c2ccccc2OC)nc2ccccc21` yielded a solubility (kinetic) of 32.3 µg/mL (≈ 85.2 µM). This solubility kinetic and that of the molecule before are within 1.5-fold of each other.

In turn, `Cc1nc2ccc(C(=O)N3CCC4(CC3)CC(=O)c3c(cnn3C(C)C)C4)cc2[nH]1` displayed a solubility (kinetic) of over 60 µg/mL.

`Cc1cc(C(=O)Nc2nnc(C3CCCCC3)s2)cs1`: the solubility (kinetic) was under 1 µg/mL.

`CCC(CC)C(=O)NC[C@@H]1C=C(C)[C@H](Cc2nc3c(C)cccc3[nH]2)C[C@H]1C(C)C`: the solubility (kinetic) was 4.34 µg/mL (≈ 10.6 µM).

For the molecule `CCN1CCN(c2ccc3cc(S(=O)(=O)N4CCOCC4)ccc3n2)CC1`, the solubility (kinetic) was over 58 µg/mL.

`CCNC(=O)N1CCCN(c2ccc(C(=O)NCCc3ccc(Cl)cc3Cl)cc2NC(=O)c2cccc(Cl)c2)CC1`: the kinetic solubility was under 1 µg/mL.

As to `CC(=O)Nc1ncc(S(=O)(=O)N2CCOCC2)s1`, the solubility (kinetic) was 26.6 µg/mL (≈ 91.1 µM).

For `CC1(COc2ccc3c(c2)ncn3-c2ccc3cccc(N4CCC(N)CC4)c3n2)COC1`, the solubility (kinetic) stood at 36.8 µg/mL (≈ 82.9 µM). The solubility kinetic values of the last two molecules are within 1.5-fold of each other.

`O=C(c1cnn(-c2cccc(F)c2)c1-n1cccc1)N1CCN(c2ccccc2F)CC1` came in with a kinetic solubility of 1.11 µg/mL (≈ 2.56 µM).

`CC1=Nc2cc(C(=O)NC3CCCC3)ccc2Sc2ccc(C)cc21`: the solubility (kinetic) was found to be 1.05 µg/mL (≈ 3 µM). This solubility kinetic and that of the molecule before are within 1.5-fold of each other.

Molecule `Cn1nnnc1Sc1ncnc2scc(-c3cc4ccccc4o3)c12` returned a solubility (kinetic) of under 1 µg/mL.

`NCC(=O)Nc1ccc(Cl)cc1C(=O)c1ccc[nH]1` showed a kinetic solubility of over 41 µg/mL.

In turn, `COc1cc2c(c(OC)c1OC)-c1ccc(OC)c(=O)cc1[C@@H](NC(C)=O)CC2` gave a solubility (kinetic) of 21 µg/mL (≈ 52.5 µM).

In the case of `O=C1CCCC2=C1C(c1[nH]ncc1Cl)N=C(Nc1nc3ccc(Cl)cc3o1)N2` (centres undefined), the solubility (kinetic) was found to be 1 µg/mL (≈ 2.4 µM).

In turn, `Cc1ccc(S(=O)(=O)Nc2cnccc2C(=O)Nc2ccc(C#N)cc2)cc1` showed a solubility (kinetic) of over 58 µg/mL.

`Cc1ccccc1C(=O)N1CCc2cc(-c3nc(NC(=O)Cc4ccc5ccccc5c4)sc3C)ccc21`: the kinetic solubility was under 1 µg/mL.

For the molecule `Cc1cccc(-n2cnc3cc(C(=O)N4CCCCCC4)ccc32)c1`, the kinetic solubility is 41.2 µg/mL (≈ 124 µM).

As for `O=C1CN(C(=O)CCC(=O)N2CCc3c(nc4cc(-c5ccccc5)[nH]n4c3=O)C2)c2ccccc2N1`, the kinetic solubility amounted to 15.6 µg/mL (≈ 31.3 µM).

In the case of `COc1ccccc1NC(=O)c1oc2ccccc2c1NC(=O)Cc1cccs1`, the kinetic solubility is under 1 µg/mL.

Take `Cc1ccc(CCNC(=O)C2CCCN(C(=O)c3cc4sccc4n3C)C2)cc1` (centres undefined): the kinetic solubility was found to be 3.09 µg/mL (≈ 7.55 µM).

`COc1ccnc(NC(=S)N2CCN(c3cccc(C(F)(F)F)c3)CC2)c1`: the kinetic solubility came out at 13 µg/mL (≈ 32.7 µM).

The molecule `Cc1cnc(-c2ccccc2C(C)(C)C)nc1NCc1ccc(-n2ccnn2)cc1` had a solubility (kinetic) of 13.2 µg/mL (≈ 33.2 µM).

On to `O=C(Cc1ccc(Cl)c(Cl)c1)Nc1ccc([S+](=O)([O-])Nc2ccccn2)cc1`, for which the kinetic solubility is under 1 µg/mL.

In the case of `Cc1noc(C)c1-c1ccc2ncnc(NCc3ccc4[nH]ccc4c3)c2c1`, the kinetic solubility was under 1 µg/mL.

The molecule `Cc1ccc(-n2c(C)cc(C3=NNC(=NC4CC4)SC3)c2C)cc1C` registered a solubility (kinetic) of 2.55 µg/mL (≈ 7.23 µM).

`C#CCOc1ccc(-c2nnc(Nc3ccc(NC(C)=O)cc3)c3ccccc23)cc1` registered a solubility (kinetic) of under 1 µg/mL.

For the molecule `CCC1=Nc2cc(C(=O)NCCCOC)ccc2Sc2ccc(Br)cc21`, the solubility (kinetic) was determined as 6.63 µg/mL (≈ 15.3 µM).

The molecule `COc1ccc(OC)c(-c2cc(C(=O)N3CCN(c4ncccn4)CC3)c3ccccc3n2)c1` showed a solubility (kinetic) of 24.5 µg/mL (≈ 53.7 µM).

For `Cc1cc(C)nc(NC(=S)N2CCN(c3ccc(Cl)cc3[N+](=O)[O-])CC2)c1`, the kinetic solubility stood at 3.08 µg/mL (≈ 7.59 µM).

In turn, `CN1CCN(C(=O)c2ccc3cc(CCNc4ncnc5ccc(C#N)cc45)ccc3c2)CC1` returned a kinetic solubility of 49.7 µg/mL (≈ 110 µM).

`Cc1ccc(-c2cc(C(=O)Nc3ccc(-n4cccn4)cc3)c3ccccc3n2)cc1C` yielded a kinetic solubility of under 1 µg/mL.

On to `Cc1ccc(NC(=O)NCC2CCN(Cc3cccc(Cl)c3)CC2)cc1Cl`, for which the solubility (kinetic) was under 1 µg/mL.

`COc1ccc(-c2cc(-c3ccccc3)nc(SCC(=O)Nc3ccccc3C)c2C#N)cc1`: the kinetic solubility was under 1 µg/mL.

Regarding `C/C(=N\NC(N)=S)C1=CCC2C3CC[C@H]4CC(O)CC[C@]4(C)C3CC[C@]12C` (some centres undefined), the solubility (kinetic) was under 1 µg/mL.

`Cc1ccc(C)n1-c1cccc(C(=O)O)c1` had a kinetic solubility of over 32 µg/mL.

`COc1cc(-c2nc(Nc3ccc(F)c(F)c3)c3ccccc3n2)cc(OC)n1`: the kinetic solubility is under 1 µg/mL.

Regarding `Cn1cc2c3c(cccc31)CN(C(=O)c1ccc(F)c(Cl)c1)CC2`, the kinetic solubility was under 1 µg/mL.

Take `Fc1cnc(-c2ccccc2C(F)F)nc1NCC1CCN(c2cnccn2)CC1`: the kinetic solubility is under 1 µg/mL.

Regarding `CN1CCN(C2=Nc3ccccc3Sc3ccc(Cl)cc32)CC1`, the solubility (kinetic) was 18.7 µg/mL (≈ 54.3 µM).

The molecule `CC[C@H]1NC(=O)[C@@H](NC(=O)c2ncccc2O)[C@@H](C)OC(=O)[C@H](c2ccccc2)NC(=O)[C@@H]2CC(=O)CCN2C(=O)[C@H](Cc2ccccc2)N(C)C(=O)[C@@H]2CCCN2C1=O` registered a solubility (kinetic) of over 100 µg/mL.

In the case of `O=C(Nc1ccc(S(=O)(=O)Nc2nccs2)cc1)c1cccc2ccccc12`, the solubility (kinetic) was determined as 1.39 µg/mL (≈ 3.39 µM).

In turn, `Cc1sc(NC(=O)Cc2ccc3c(c2)OCO3)nc1-c1ccc2c(c1)CCN2C(=O)c1ccccc1` had a solubility (kinetic) of under 1 µg/mL.

`CCOc1ccc(CCNC(=O)c2cc3ccncc3n2Cc2cccc(C)n2)cc1OCC` yielded a kinetic solubility of over 68 µg/mL.

For the molecule `Cc1ccc(Nc2nc(NCCO)c3ccccc3n2)cc1C.Cl`, the kinetic solubility was 28.1 µg/mL.

Molecule `Cc1ccnc(NC(=S)N2CCN(c3cccc(C(F)(F)F)c3)C[C@@H]2C)c1` yielded a solubility (kinetic) of 3.88 µg/mL (≈ 9.84 µM). This solubility kinetic lies about 7.2-fold lower than the previous one.

On to `COc1ccc(NS(=O)(=O)c2ccc(C)cc2)cc1C(=O)Nc1nc(-c2ccccc2)cs1`, for which the kinetic solubility is under 1 µg/mL.

`CN1CCN(c2ccc(-c3cccc(CN4CCOCC4)c3)cc2NC(=O)c2c[nH]c(=O)cc2C(F)(F)F)CC1` displayed a solubility (kinetic) of 69.1 µg/mL (≈ 124 µM).

On to `CC(C)NC(=O)c1nc(-c2ccc(Cl)nc2)c2cnccn12`, for which the solubility (kinetic) came to 16.5 µg/mL (≈ 52.2 µM).

In the case of `Nc1nc2c(s1)C(c1ccc(F)cc1F)CC(=O)N2` (centres undefined), the kinetic solubility was 23.2 µg/mL (≈ 82.4 µM).

Molecule `Cc1ccc(S(=O)(=O)N2CCCc3cc(NS(=O)(=O)c4ccccc4)ccc32)cc1` returned a solubility (kinetic) of under 1 µg/mL.

With `COc1ccc(NC(=O)c2cccnc2)cc1S(=O)(=O)Nc1ccc(Br)cc1`, the solubility (kinetic) was found to be 33.5 µg/mL (≈ 72.5 µM).

`O=C(Nc1nc2cc(C(F)(F)F)cc(NC3CC3)n2n1)c1cccnc1` came in with a kinetic solubility of under 1 µg/mL.

Turning to `O=[S+]([O-])(Nc1cccc2cccnc12)c1ccc(NCc2ccc(Cl)cc2O)cc1`, the kinetic solubility is under 1 µg/mL.

For the molecule `CCOc1ccc(CCNC(=O)c2cc3sccc3n2Cc2ccc(F)cc2F)cc1OCC`, the kinetic solubility is under 1 µg/mL.

In turn, `O=[N+]([O-])c1ccc(/C=N/n2c(CO)nc3ccccc32)s1` came in with a solubility (kinetic) of under 1 µg/mL.

For `COc1ccc(CCNc2ncnc3onc(C)c23)c(OC)c1`, the kinetic solubility is 9.08 µg/mL (≈ 28.9 µM).

`O=c1c(-c2ccc(O)cc2)coc2cc(O)cc(O)c12` registered a solubility (kinetic) of 27.3 µg/mL (≈ 101 µM).

With `Fc1ccccc1Nc1nc(-c2ccncc2)nc2ccccc12`, the kinetic solubility was under 1 µg/mL.

As for `NC(=O)C1CCN(c2ncc(-c3cccc(N4CCCC4)c3)s2)CC1`, the solubility (kinetic) came to 11.6 µg/mL (≈ 32.6 µM).

As for `Cc1cccc(-c2noc([C@@H]3Cc4nc[nH]c4CN3C(=O)CC(C)(C)CC(=O)O)n2)c1`, the solubility (kinetic) was over 63 µg/mL.

As for `O=C(C1CCN(c2nc(-c3ccc(Br)cc3)cs2)CC1)N1CCOCC1`, the kinetic solubility was determined as 7.27 µg/mL (≈ 16.7 µM).

In the case of `CNc1cc(-c2nc(Nc3ccc(F)c(F)c3)c3ccccc3n2)ccn1`, the solubility (kinetic) was under 1 µg/mL.

Regarding `O=C(NC1CCCc2c1[nH]c1ccccc21)c1ccccc1` (centres undefined), the kinetic solubility was 7.97 µg/mL (≈ 27.4 µM).

In the case of `CCOc1ccc(CCNC(=O)c2cc3c(s2)CCC3)cc1OCC`, the kinetic solubility turned out to be 4.46 µg/mL (≈ 12.4 µM).

For the molecule `Cc1ccc([S+](=O)([O-])n2cc(-c3ccc(-c4ccccc4)cc3)c3ccccc32)cc1`, the kinetic solubility was under 1 µg/mL.

The molecule `Fc1ccc(CN2CCOC[C@H]2c2ncc(-c3ccc(Cl)s3)[nH]2)cc1` showed a kinetic solubility of 5.47 µg/mL (≈ 14.5 µM).

Take `Cc1csc2c1c(=O)n(O)c(=O)n2Cc1ccccc1`: the kinetic solubility is over 43 µg/mL.

`CC1(C)CC2CC(C)(CN2S(=O)(=O)c2ccc(C(=O)Nc3ccc(Cl)cc3)cc2)C1` (centres undefined) came in with a solubility (kinetic) of under 1 µg/mL.

Molecule `O=C1CCC(CNC(=O)c2nc(-c3ccccc3)cc3[nH]ccc23)N1` (centres undefined) came in with a solubility (kinetic) of over 74 µg/mL.

The solubility (kinetic) is the concentration staying in solution when a stock, usually in DMSO, is diluted into the medium.
